{
  "source": "paper PMC10667233",
  "about": "“New cytotoxic dammarane type saponins from Ziziphus spina-christi” (Scientific Reports, 2023)",
  "key": {"A549": {"tested_on": "A549", "assay": "MTS cell viability, A549 lung cancer cells", "assay_type": "cell-based", "settings": "Homo sapiens, read-out: IC50 (µg/mL) values", "method": "(§1) A549, U87, MDA-MB-231, and CT-26 cells were purchased from American Type Culture Collection (ATCC) (Manassas, VA, USA). The cells, A549 and CT-26 were cultured in RPMI-1640 supplemented with 1% Pen/Strep (100 U mL^–1, Gibco, Carlsbad, CA) and 10% FBS (Atlanta Biologicals, Flowery Branch, GA). While MDA-MB-231 and U87 cells were cultured in DMEM medium supplemented with 1% Pen/Strip and 10% FBS. Cells were incubated at 37 °C and 5% CO2 in humidified incubator (Sanyo Scientific Autoflow, Hudson, MA).\n(§2) A549, U87, MDA-MB-231, and CT-26 cancer cells were plated in 96-well plates at a density of 2X10^4 cells/well in 100 μL of medium before the addition of different concentrations of the plant extracts. Untreated control group was incubated with^-100 µL/well of fresh media and^-methanol. After 24 h., the medium was aspirated and replaced by-100 µL of fresh media, and 20 µL of MTS^-reagent in each well (CellTiter 96^-Aqueous One^-Solution cell^-proliferation assay, Promega^-Corporation, Madison,^-WI,^-USA). The plates were then incubated at 37 °C with 5% CO2 for 2 h. The absorbance was measured at 490 nm using a Spectramax plus 384 Microplate reader (Molecular Devices, Sunnyvale, CA, USA). Relative cell viability values were expressed as the percentage of the absorbance from the treated wells compared to the control wells (untreated), given that the control wells viability was set to 100%. The cells were examined under a cell imaging system (EVOS FL Digital Microscope) using a 20X objective as well before getting rid of the plates. The half-maximal inhibitory concentrations (IC50) of pure compounds for four […] cancer cell lines were calculated.\n(§3) Figure 3 The anticancer activities of the three pure compounds (1–3) isolated from Ziziphus spina-christi using the MTS assay on glioblastoma, breast cancer, lung, and colorectal carcinoma cells. Cancer cells lines A549 (a) U87 (b), MDA-MB-231 (c) and CT-26 […] were tested. […] Cells were stained with MTS reagents and cell survival was quantitated using the spectramax plate reader. […]"}, "U87": {"tested_on": "U87", "assay": "MTS cell viability, U87 glioblastoma cells", "assay_type": "cell-based", "settings": "Homo sapiens, U-87 MG, 24 h, read-out: IC50 (µg/mL) values", "method": "as §1, §2, §3"}, "CT-26": {"tested_on": "CT-26", "assay": "MTS cell viability, CT-26 colorectal carcinoma cells", "assay_type": "cell-based", "settings": "read-out: IC50 (µg/mL) values", "method": "as §1, §2, §3"}, "MDA-MB-231": {"tested_on": "MDA-MB-231", "assay": "MTS cell viability, MDA-MB-231 breast cancer cells", "assay_type": "cell-based", "settings": "Homo sapiens, read-out: IC50 (µg/mL) values", "method": "as §1, §2, §3"}, "[1]": {"tested_on": "breast cancer cell line MDA-MB-231", "set-up": "method as in PMID 19960417", "settings": "50 μmol/l, MDA-MB-231 in vitro; cited from earlier work"}, "sarcoma S180": {"tested_on": "sarcoma S180", "set-up": "method as in PMID 19960417", "settings": "50 μmol/kg, mice implanted with sarcoma S180; cited from earlier work"}, "A549 cells": {"tested_on": "A549 cells", "set-up": "method as in PMID 26922140", "settings": "concentration-dependent; cited from earlier work"}, "EBV-EA": {"tested_on": "EBV-EA", "settings": "cited from earlier work"}},
  "note": "Like-named read-outs stand apart in the source and are kept apart here.",
  "data": [
    {"compound": "CC(C)=CC1CC(C)(O)C2C3CCC4C5(C)CCC(OC6OCC(O)C(OC7OC(CO)C(O)C(O)C7O)C6OC6OC(C)C(O)C(O)C6O)C(C)(C)C5CCC4(C)C34COC2(C4)O1", "note": "(stereo not drawn) [Compound 3, christinin A]", "values": [
      {"measurement": "IC50", "setting": "A549; A549, 24 h", "value": "5.67 ± 1.05", "unit": "µg/mL"},
      {"measurement": "IC50", "setting": "U87", "value": "7.28 ± 0.56", "unit": "µg/mL"},
      {"measurement": "IC50", "setting": "CT-26; CT26, 24 h", "value": "5.47 ± 1.3", "unit": "µg/mL"},
      {"measurement": "IC50", "setting": "MDA-MB-231; MDA-MB-231, 24 h", "value": "9.3 ± 0.19", "unit": "µg/mL"}
    ]},
    {"compound": "bacopaside É", "values": [
      {"measurement": "adhesion, migration, and matrigel invasion (in words)", "setting": "[1]", "value": "markedly reduced"},
      {"measurement": "inhibition", "setting": "sarcoma S180", "value": 90.52, "unit": "%"}
    ]},
    {"compound": "CC(C)=CC1C[C@](C)(O)[C@@H]2[C@@H]3CC[C@@H]4[C@@]5(C)CC[C@H](O[C@@H]6OC[C@H](O)[C@H](O[C@@H]7O[C@H](CO)[C@@H](O)[C@H](O)[C@H]7O)[C@H]6O[C@@H]6O[C@@H](CO)[C@H](O)[C@H]6O)C(C)(C)[C@@H]5CC[C@@]4(C)[C@]34CO[C@@]2(C4)O1", "note": "(stereo partly drawn) [bacopaside VII]", "values": [
      {"measurement": "adhesion, migration, and matrigel invasion (in words)", "setting": "[1]", "value": "markedly reduced"},
      {"measurement": "inhibition", "setting": "sarcoma S180", "value": 84.13, "unit": "%"}
    ]},
    {"compound": "CC(C)=CC1CC(C)(O)C2C3CCC4C5(C)CCC(OC6OCC(O)C(OC7OC(CO)C(OC(=O)C=Cc8ccc(OC(=O)C(=O)O)cc8)C(O)C7O)C6OC6OC(C)C(O)C(O)C6O)C(C)(C)C5CCC4(C)C34COC2(C4)O1", "note": "(stereo not drawn) [Compound 2, Christinin F]", "values": [
      {"measurement": "IC50", "setting": "A549; A549, MTS, 24 h", "value": "4.89 ± 0.93", "unit": "µg/mL"},
      {"measurement": "IC50", "setting": "U87; U87, MTS", "value": "4.16 ± 0.87", "unit": "µg/mL"},
      {"measurement": "IC50", "setting": "CT-26; CT26, CT-26, MTS, 24 h", "value": "7.21 ± 0.35", "unit": "µg/mL"},
      {"measurement": "IC50", "setting": "MDA-MB-231; MDA-MB-231, MTS, 24 h", "value": "5.81 ± 0.087", "unit": "µg/mL"}
    ]},
    {"compound": "CC(C)=CC1CC(C)(O)C2C3CCC4C5(C)CCC(OC6OCC(O)C(OC7OC(CO)C(OC(=O)C=Cc8ccc(O)cc8)C(O)C7O)C6OC6OC(C)C(O)C(O)C6O)C(C)(C)C5CCC4(C)C34COC2(C4)O1", "note": "(stereo not drawn) [Compound 1, Christinin E]", "values": [
      {"measurement": "IC50", "setting": "A549; A549, MTS, 24 h", "value": "9.53 ± 0.01", "unit": "µg/mL"},
      {"measurement": "IC50", "setting": "U87; U87, MTS", "value": "5.7 ± 1.63", "unit": "µg/mL"},
      {"measurement": "IC50", "setting": "CT-26; CT26, CT-26, MTS, 24 h", "value": "0.7 ± 0.049", "unit": "µg/mL"},
      {"measurement": "IC50", "setting": "MDA-MB-231; MDA-MB-231, MTS, 24 h", "value": "6.02 ± 1.5", "unit": "µg/mL"}
    ]},
    {"compound": "gypenoside Jh1", "values": [
      {"measurement": "cytotoxicity (in words)", "setting": "A549 cells", "value": "strong cytotoxicity"}
    ]},
    {"compound": "C=C(C)[C@@H]1CC[C@]2(C)[C@H](CC[C@@H]3[C@@H]([C@@](C)(O)CCC=C(C)C)CC[C@]32C)[C@@]1(C)CCC(=O)O", "note": "[dammarenolic acid]", "values": [
      {"measurement": "IC50", "setting": "EBV-EA", "value": 226, "unit": "mol ratio/32 pmol TPA"}
    ]}
  ]
}
